Laboratory results reported in the CheMixHub ionic liquid set.

Test: xn = mol fraction of the nth substance listed
Settings: 101 kPa

CC(=O)[O-].CCCC[NH2+]CCO + CCCC[n+]1ccn(C)c1.O=S(=O)([N-]S(=O)(=O)C(F)(F)F)C(F)(F)F
Settings | viscosity [mPa·s]
283.15 K, x1 = 0.1012 | 127.4
283.15 K, x1 = 0.6987 | 1145
283.15 K, x1 = 0.8008 | 1850
283.15 K, x1 = 1 | 3634
288.15 K, x1 = 0.3002 | 164.2
288.15 K, x1 = 0.8008 | 1170
288.15 K, x1 = 0.901 | 1735
298.15 K, x1 = 0.2257 | 78.02
298.15 K, x1 = 0.8008 | 515
298.15 K, x1 = 0.901 | 731
298.15 K, x1 = 1 | 921
303.15 K, x1 = 0.4998 | 126.1
303.15 K, x1 = 0.8008 | 356
308.15 K, x1 = 0.3002 | 56.19
308.15 K, x1 = 1 | 423
313.15 K, x1 = 0.4998 | 73.4
313.15 K, x1 = 0.6987 | 130.9
313.15 K, x1 = 0.8008 | 182
313.15 K, x1 = 0.901 | 243.8
313.15 K, x1 = 1 | 297
318.15 K, x1 = 0.2257 | 32.2
318.15 K, x1 = 0.6987 | 98.5
318.15 K, x1 = 0.901 | 176.6
323.15 K, x1 = 0.6987 | 75.5
328.15 K, x1 = 0.2257 | 22.42
328.15 K, x1 = 0.6018 | 46.47
328.15 K, x1 = 0.901 | 98
338.15 K, x1 = 0.6987 | 37.11
343.15 K, x1 = 0.2257 | 14.05
343.15 K, x1 = 0.4998 | 20.65
343.15 K, x1 = 0.901 | 45.6
343.15 K, x1 = 1 | 51.9
348.15 K, x1 = 0.423 | 15.42
353.15 K, x1 = 0.901 | 29.26
353.15 K, x1 = 1 | 32.6
358.15 K, x1 = 0.3002 | 9.99
358.15 K, x1 = 0.423 | 11.46
358.15 K, x1 = 0.4998 | 12.68
363.15 K, x1 = 0.423 | 9.98
363.15 K, x1 = 1 | 21.43
368.15 K, x1 = 0.8008 | 14.29
368.15 K, x1 = 1 | 17.63
373.15 K, x1 = 0.3002 | 6.99
373.15 K, x1 = 0.423 | 7.73
373.15 K, x1 = 0.4998 | 8.35
373.15 K, x1 = 1 | 14.64
